Laboratory results as given in ChEMBL document CHEMBL1221225, “A small molecule that directs differentiation of human ESCs into the pancreatic lineage” (Nat Chem Biol, 2009).
Active and inactive are the calls of the source. The calls are words filed in the database; no cut-off is given here.

What was measured:
Homo sapiens [1] = species on record: Homo sapiens; assay: Induction of human HUES8 differentiation into definitive endoderm assessed as expression of SOX17 at 300 nM after 3 days by immunocytochemistry; format: functional
[2] = Inhibition of PKC signaling in human HUES8 cells assessed as decrease in Pdx1-expressing cells at 1 uM after 4 days cells pregrown in medium with Wnt3a, activin A, FGF10, KAAD-cyclopamine and retinoic acid in presence of 10 uM Go 6983 by immunocytochemistry (reference value: 26.9+/-2.8%); format: cell-based
Liver = assay: Induction of Albumin expression in CD1 nude mouse liver at 300 nM after 4 days by fluorescent confocal microscopy; format: functional, tissue-based
HUES8 [3] = assay: Induction of human HUES8 cell differentiation into pancreatic progenitor cell assessed as increase in NGN3 mRNA expression at 300 nM after 4 days by RT-PCR analysis cells pregrown in medium containing Wnt, activin, FGF10, KAAD-cyclopamine and retinoic acid; format: functional, cell-based
AV3 [4] = assay: Induction of mouse AV3 cell differentiation into pancreatic lineage assessed as increase in cdcp1 mRNA expression at 300 nM after 6 days by RT-PCR analysis pretreated with 1000 ng/ml recombinant mouse Nodal for 5 days; format: functional, cell-based
Mus musculus [5] = species on record: Mus musculus; assay: Induction of mouse AV3 Pdx1-expressing cell differentiation assessed as increase in SOX9 expression at 300 nM after 6 days by immunohistochemistry pretreated with 1000 ng/ml recombinant mouse Nodal for 5 days; format: functional
HUES8 [6] = assay: Induction of human HUES8 cell differentiation into pancreatic progenitor cell assessed as increase in PTF1A mRNA expression at 300 nM after 4 days by RT-PCR analysis cells pregrown in medium containing Wnt, activin, FGF10, KAAD-cyclopamine and retinoic acid; format: functional, cell-based
[7] = Induction of human HUES8 differentiation into pancreatic lineage assessed as increase in DBA-positive exocrine cells at 300 nM after 4 days by RT-PCR (reference value: 0.8+/-0.2%); format: functional
[8] = Cytotoxicity against human HUES9 cells at 300 nM; format: cell-based; settings: hues9, 0.3 µM
Mus musculus [9] = species on record: Mus musculus; assay: Induction of nestin expression in CD1 nude mouse ectoderm at 300 nM after 4 days by fluorescent confocal microscopy; format: functional, tissue-based
Homo sapiens [10] = species on record: Homo sapiens; assay: Induction of human HUES4 cell differentiation into pancreatic progenitor cells assessed as increase in Pdx1-expression in cells pregrown with medium containing Wnt, activin, FGF10, KAAD-cyclopamine and retinoic acid at 300 nM after 4 days by Opera high content screening system relative to control; format: functional, cell-based
[11] = Induction of human HUES8 cell differentiation into pancreatic progenitor cell assessed as HNF6 expression in cells pregrown in medium containing Wnt, activin, FGF10, KAAD-cyclopamine and retinoic acid at 300 nM after 4 days by immunocytochemistry relative to control; format: functional
[12] = Induction of mouse AV3 cell differentiation into pancreatic lineage assessed as increase in Pdx-1 expression at 300 nM after 6 days by immunohistochemistry pretreated with 1000 ng/ml recombinant mouse Nodal for 5 days (reference value: 4.0+/-1.5%); format: functional
HUES8 [13] = assay: Induction of human HUES8 cell differentiation into pancreatic progenitor cell assessed as increase in PROX1 mRNA expression at 300 nM after 4 days by RT-PCR analysis cells pregrown in medium containing Wnt, activin, FGF10, KAAD-cyclopamine and retinoic acid; format: functional, cell-based
[14] = Inhibition of PKC signaling in human HUES8 cells assessed as decrease in Pdx1-expressing cells at 4 uM after 4 days by immunocytochemistry in presence of ILV pregrown in medium with Wnt3a, activin A, FGF10, KAAD-cyclopamine and retinoic acid (reference value: 26.9+/-2.8%); format: cell-based
[15] = Induction of human HUES8 differentiation into pancreatic lineage assessed as increase in DBA-positive exocrine cells at 300 nM after 4 days by RT-PCR (Rvb (DMSO) = 0%); format: functional
Mus musculus [16] = species on record: Mus musculus; assay: Induction of SOX7 expression in CD1 nude mouse extra-embryonic endoderm at 300 nM after 4 days by fluorescent confocal microscopy; format: functional, tissue-based
HUES8 [17] = assay: Induction of human HUES8 cell differentiation into endocrine progenitor cell assessed as increase in NKX2.2 mRNA expression at 300 nM after 4 days by RT-PCR analysis cells pregrown in medium containing Wnt, activin, FGF10, KAAD-cyclopamine and retinoic acid; format: functional, cell-based
Homo sapiens [18] = species on record: Homo sapiens; assay: Induction of human HUES8 differentiation into pancreatic lineage assessed as increase in somatostatin-producing endocrine cells at 300 nM after 4 days by immunostaining; format: functional
HUES2 = assay: Induction of human HUES2 cell differentiation into pancreatic progenitor cells assessed as increase in Pdx1-expression in cells pregrown with medium containing Wnt, activin, FGF10, KAAD-cyclopamine and retinoic acid at 300 nM after 4 days by Opera high content screening system relative to control; format: functional, cell-based
[19] = Induction of human HUES8 cell differentiation into pancreatic progenitor cell assessed as FOXA2 expression in cells pregrown in medium containing Wnt, activin, FGF10, KAAD-cyclopamine and retinoic acid at 300 nM after 4 days by immunocytochemistry relative to control; format: functional
[20] = Induction of human HUES9 cell differentiation into pancreatic lineage assessed as increase in Pdx1-expression in cells pregrown with medium containing Wnt, activin, FGF10, KAAD-cyclopamine and retinoic acid at 1 uM after 1 day by Opera high content screening system; format: functional
AV3 [21] = assay: Induction of mouse AV3 cell differentiation into pancreatic lineage assessed as increase in Nkx2.2 mRNA expression at 300 nM after 6 days by RT-PCR analysis pretreated with 1000 ng/ml recombinant mouse Nodal for 5 days; format: functional, cell-based
Mus musculus [22] = species on record: Mus musculus; assay: Induction of mouse AV3 Pdx1-expressing cell differentiation assessed as increase in Nkx6.1 expression at 300 nM after 6 days by immunohistochemistry pretreated with 1000 ng/ml recombinant mouse Nodal for 5 days; format: functional
[23] = Induction of cell proliferation in human HUES8 Pdx1 expressing cells assessed as expression of Ki67 at 300 nM after 4 days by immunocytochemistry; format: functional
Mus musculus [24] = species on record: Mus musculus; assay: Induction of desmin expression in CD1 nude mouse mesoderm at 300 nM after 4 days by fluorescent confocal microscopy; format: functional, tissue-based
[25] = Inhibition of PKC signaling in human HUES8 cells assessed as decrease in Pdx1-expressing cells at 1 uM after 4 days cells pregrown in medium with Wnt3a, activin A, FGF10, KAAD-cyclopamine and retinoic acid in presence of 1 uM BISI by immunocytochemistry (reference value: 26.9+/-2.8%); format: cell-based
Homo sapiens [26] = species on record: Homo sapiens; assay: Induction of C-peptide release in human HUES8 insulin-producing cell at 300 nM after 4 days by ELISA; format: functional
Homo sapiens [27] = species on record: Homo sapiens; assay: Induction of Pdx1 expression in human HUES8 insulin-producing cells at 300 nM after 4 days by immunocytochemistry relative to control; format: functional
HUES8 [28] = assay: Induction of human HUES8 cell differentiation into pancreatic progenitor cell assessed as increase in Pdx1 mRNA expression at 300 nM after 4 days by RT-PCR analysis cells pregrown in medium containing Wnt, activin, FGF10, KAAD-cyclopamine and retinoic acid; format: functional, cell-based

## CC(C)[C@H]1C(=O)N[C@H](CO)Cc2c[nH]c3cccc(c23)N1C [INDOLACTUM]
Homo sapiens [1]
  Activity: inactive
[2]
  inhibition: 0.8%
Liver
  Activity: inactive
HUES8 [3]
  Activity: Active
AV3 [4]
  Activity: Active
Mus musculus [5]
  Activity: Active
HUES8 [6]
  Activity: Active
[7]
  Activity: 3.6%
[8]
  Activity: Non-toxic
Mus musculus [9]
  Activity: inactive
Homo sapiens [10]
  Activity: Active
[11]
  Activity: 91.3%
[12]
  Activity: 50%
HUES8 [13]
  Activity: Active
[14]
  inhibition: 1.2%
[15]
  Activity: 3.6%
Mus musculus [16]
  Activity: inactive
HUES8 [17]
  Activity: Active
Homo sapiens [18]
  Activity: Active
HUES2
  Activity: Active
[19]
  Activity: 99.5%
[20]
  Activity: 5.3%
AV3 [21]
  Activity: Active
Mus musculus [22]
  Activity: Active
[23]
  Activity: 0.1%
Mus musculus [24]
  Activity: inactive
[25]
  inhibition: 0.6%
Homo sapiens [26]
  Activity: Active
Homo sapiens [27]
  Activity: Active
HUES8 [28]
  Activity: Active
